# Measured values reported in paper PMC7178208 (International Journal of Molecular Sciences, 2020).
# Peptide text beside a SMILES is read from it. * marks the point of attachment. FITC = O=C1OC2(c3ccc(O)cc3Oc3cc(O)ccc32)c2ccc(NC(=S)*)cc21; Ahx = NCCCCCC(=O)O
# Assays:
# C. albicans [1] = experiment: Confocal laser microscopy, localization of FITC peptides; type: cell-based, Candida albicans; settings: 50 μM FITC-conjugated peptide, 10^7 CFU/mL, SD broth, 28 °C, 5 min
# Protocol: Firstly, 10^7 CFU/mL of C. albicans was incubated with 0.25 mM FITC P-113 and 0.25 mM FITC alone (as a negative control) in SD broth at 28 °C for 1, 2, 3, 4, 5, and 6 h. Another experiment was performed to observe the short-term localization of Bip-P-113 and Dip-P-113 peptides. Briefly, log-phase C. albicans cultures were resuspended to a cell density of 10^7 CFU/mL in SD broth and treated for 5 min at 28 °C with 50 μM FITC-conjugated P-113, Bip-P-113, and Dip-P-113. After centrifugation, the cells were washed three times with 20 mM phosphate buffer (pH 7.4) to remove nonbinding peptides and fixed with 4% (w/v) paraformaldehyde in 20 mM phosphate buffer (pH 7.4) at room temperature for 20 min. Following fixation, the cells were centrifuged at 3500× g for 5 min, resuspended in phosphate buffer, and loaded onto a glass slide with a 1.4% solid agarose bed. The images were taken with a confocal laser scanning microscope (LSM 510 META, Carl Zeiss, Jena, Germany) equipped with a 40× C-Apochromat water-immersion objective lens (Carl Zeiss, Jena, Germany).
# [2] = 0.01% P-113 (0.07 μM) in a mouthrinse treatment, clinical trial; cited from earlier work
# C. albicans [3] = experiment: Scanning electron microscopy, cell morphology; type: cell-based, Candida albicans; settings: 0.25 mM P-113, 10^7 CFU/mL, SD broth, 28 °C, 1-6 h
# Protocol: Time-course morphological studies of C. albicans were performed by scanning electron microscopy (SEM). Overnight cultures of C. albicans were sub-cultured and grown in SD broth. Then, 10^7 CFU/mL of C. albicans was treated with 0.25 mM P-113 in SD broth at 28 °C. Samples were collected following 1, 2, 3, 4, 5, and 6 h of incubation. Another experiment was performed to observe the morphological changes caused over in a short time caused by Bip-P-113 and Dip-P-113. Briefly, 10^7 CFU/mL of C. albicans in SD broth was treated for 5 min at 28 °C with 50 μM P-113, Bip-P-113, and Dip-P-113. After harvest, cells were resuspended in fixation solution (2.5% glutaraldehyde in 20 mM phosphate buffer pH 7.4) and then placed on Thermanox substrate-coated cover slips at 4 °C for 12 h. The cover slips were carefully washed three times with 20 mM phosphate buffer (pH 7.4), followed by incubation in post-fixation solution (1% OsO4 in 20 mM phosphate buffer pH 7.4) at room temperature for an hour. After being washed three times with 20 mM phosphate buffer (pH 7.4), the cover slips were air-dried for an hour by dehydration with a graded series of ethanol. Samples were gold-coated and observed under an S-4700 field-emission (FE)-SEM (Hitachi, Ltd., Tokyo, Japan) at an acceleration voltage of 5 kV.
# Candida albicans = type: cell-based; settings: 24 h, 1
# Protocol: Figure 7 Time killing activity of FITC-labeled P-113 peptide and its FITC-labeled derivatives against Candida albicans. Cells were treated with 1× MIC of (a) P-113 (black circle), FITC-labeled N-terminal truncated P-113 (black square), FITC-labeled C-terminal truncated P-113 (black triangle), and (b) treated with FITC-labeled Bip-P-113 (white square), and FITC-labeled Dip-P-113 (white triangle). Killed cells (%) = (cell number in peptide-free control − cell number in sample)/(cell number in peptide-free control) × 100. Error bars represent the standard errors of the mean.
# C. albicans were cultivated onto Sabouraud dextrose agar plates overnight and sub-cultured twice before time killing assays. A total of 5 × 10^4 CFU/mL of C. albicans cells were treated with 1× MIC of FITC-conjugated P-113 peptides and their derivatives in SD broth for 10, 20, 30, 60, and 120 min at 28 °C. After that time, serial dilutions (1:10) of the incubation mixtures were added onto SD agar. The numbers of CFU were counted after 24 h of incubation at 28 °C. The percentage of killed cells was calculated by comparison with the number of cells in a control sample incubated without P-113 peptide. The assays were performed in triplicate.
# [4] = tested on: C. albicans American Type Culture Collection (ATCC) 10,231; type: cell-based, Candida albicans; settings: American Type Culture Collection (ATCC) 10,231, 24 h
# Protocol: C. albicans (ATCC 10231) from the American Type Culture Collection (Manassas, VA, USA) was cultured at 28 °C on SD agar plates.
# To determine the minimum inhibitory concentration (MIC) values of the FITC conjugated-P-113 peptides and their derivatives, a broth microdilution assay was used. Overnight-grown cultures of C. albicans in SD broth were sub-cultured for several hours and subsequently diluted to a final concentration of 5 × 10^4 CFU/mL in Mueller Hinton (MH) broth and LYM broth. A total of 100 μL of diluted microbe was transferred into each well of a 96-well plate, into which a 1 μL dilution series of peptides in sterile water (ranging from 50 to 0.78 μg/mL) was previously added. After incubation for 24 h at 28 ℃, the MIC value of P-113 peptides was determined as the lowest concentration at which no change in optical density was observed. The experiment was conducted three times, and average values were reported.
# [5] = tested on: living C. albicans cells (secreted aspartic proteinases, Saps); experiment: Degradation of P-113 by living C. albicans cells (NMR); type: in vitro ADME, Candida albicans
# Protocol: For living cell NMR experiments, the interaction between ^15N-labeled P-113 peptides and C. albicans was monitored by 2D heteronuclear single quantum coherence (HSQC) spectroscopy. The peptides were dissolved in SD broth for a total volume of 500 μL at a 0.275 mM concentration. After centrifugation, 10^7 CFU/mL of cells were resuspended in 50 μL of SD broth and then titrated into the peptide solution. The ^15N-^1H HSQC spectra were recorded on a Bruker Avance 600-MHz NMR spectrometer in the States-TPPI mode for quadrature detection at 301 K. The ^1H and ^15N carriers were placed at 4.699 and 120 ppm, respectively. After titration, 2D HSQC spectra were collected every hour during 24 h of incubation at 301 K. All spectra were processed with NMRPipe and analyzed using the Sparky program (T.D. Goddard and D.G. Kneller, SPARKY3, University of California, San Francisco, CA, USA).
# To obtain sequence assignment information, 3D spectra, including those from HNCA, HN(CO)CA, HNCACB, HN(CO)CACB, HN(CA)CO, and HNCO experiments, were recorded on a Bruker Avance 600-MHz NMR spectrometer at 301 K. The ^13C carriers were placed at 48 ppm for C^α, at 38 ppm for ^13C^α/β and at 174 ppm for C′. All spectra were processed with NMRPipe and analyzed using the Sparky program.
# To observe the correlation of amide nitrogen (^15Ni) to the carbon (^13C′) spin in the proceeding residue (^13C′i−1), 2D CON experiments were performed on Bruker Avance 850-MHz NMR spectrometer equipped with a triple-resonance cryogenic probe. The spectra comparing ^15N-, ^13C-labeled P-113 in SD broth and in a C. albicans titration were recorded with the center frequencies at 120 ppm (^15N) and 174 ppm (^13C), respectively. All spectra were processed with NMRPipe and analyzed using the Sparky program.
# The inhibition of P-113 degradation by C. albicans was determined using living cell NMR experiments as described above in the presence of 0.5 mM of the aspartic protease inhibitor pepstatin A.
smiles,measurement,setting,value
C[C@H](NC(=O)CCCCCNC(=S)Nc1ccc2c(c1)C(=O)OC21c2ccc(O)cc2Oc2cc(O)ccc21)C(=O)N[C@@H](CCCCN)C(=O)N[C@@H](CCCNC(=N)N)C(=O)N[C@@H](Cc1c[nH]cn1)C(=O)N[C@@H](Cc1c[nH]cn1)C(=O)NCC(=O)N[C@@H](Cc1ccc(O)cc1)C(=O)N[C@@H](CCCCN)C(=O)N[C@@H](CCCNC(=N)N)C(=O)N[C@@H](CCCCN)C(=O)N[C@@H](Cc1ccccc1)C(=O)N[C@@H](Cc1c[nH]cn1)C(N)=O [Peptide P-113] ({FITC-Ahx}-AKRHHGYKRKFH-NH2; N-terminus assumed),Cellular localization of FITC peptide,C. albicans [1],accumulated in the cytosol
same,Effect on gingivitis and plaque,[2],reduced the development of gingivitis and plaque
same,"Cell surface morphology (SEM), time course",C. albicans [3],smooth
same,Killed cells,Candida albicans,87%
same,"MIC, LYM Control",[4],3.13 µg/mL
same,"MIC, MH Broth",[4],>50 µg/mL
same,Cleavage sites,"[5]; 0.25 mM 15N-,13C-labeled P-113, 10^7 CFU/mL C. albicans, SD broth, 301 K, 24 h, 15N-13C CON and 3D backbone assignment","Tyr7-Lys8, Lys8-Arg9, and Lys10-Phe11"
same,Incubation time to near-complete degradation of P-113,"[5]; 0.25 mM 15N-labeled P-113 (no FITC), 10^7 CFU/mL C. albicans, SD broth with 10% D2O, 301 K, 1H-15N HSQC every hour",5 h
same,Time at which the first cleavage (Lys10-Phe11) was observed,"[5]; 0.25 mM 15N-labeled P-113, 10^7 CFU/mL C. albicans, SD broth, 301 K, new HSQC cross-peaks",1 h
same,Changes in 1H-15N HSQC chemical shifts (degradation) in the presence of pepstatin A,"[5]; 0.25 mM P-113, 10^7 CFU/mL C. albicans + 0.5 mM pepstatin A, 301 K, 24 h",no noticeable changes
same,Changes in chemical shifts (degradation) at cell densities below 10^7 cells/mL,"[5]; 0.25 mM P-113, C. albicans below 10^7 cells/mL, data not shown",did not show any noticeable changes
